Source: patent US6596778B1, “β-endorphin peptides for treating muscle-wasting diseases” (The University of Birmingham, priority 1997, dated 2003)
Where a SMILES comes first, the peptide text is derived from it. Where no end group is shown, it is not given here. [ ]: non-standard residue; d: D form. Sar = CNCC(=O)O

What was measured:
[1] = test system: mouse diaphragm muscle; format: cell-based, mice, C57BL/6j strain; details: for blockade of the agonist's/peptide's effect on contractile responses by NTB (d2-opioid antagonist): NTB 2.5×10^−7 M; for blockade of the agonist's/peptide's effect on contractile responses by NTB (d2-opioid antagonist) / blockade of the agonist's/peptide's effect on contractile responses by BNTX (d1-opioid antagonist): agonist/peptide 2.5×10^−7 M; for blockade of the peptide's effect on contractile responses by naloxone: naloxone 2.5×10^−6 M; for blockade of the peptide's effect on contractile responses by naloxone / 1/2 relaxation time / Time to peak: peptide 2.5×10^−7 M; for 1/2 relaxation time / Time to peak: low frequency indirect stimulation, mean ± S.E.M.; for blockade of the agonist's/peptide's effect on contractile responses by BNTX (d1-opioid antagonist): BNTX 2.5×10^−7 M
Method: (§1) Adult female mice, 3-4 months of age, of the C57BL/6j strain were killed by cervical dislocation and the skin and musculature around the rib cage were removed. The diaphragm and part of the rib cage were carefully dissected out along with a length of the left phrenic nerve. The left hemidiaphragm (together with the left phrenic nerve stump) was pinned out in an organ bath containing oxygenated Krebs solution which was gassed continuously with 95% O2-5% CO2 at room temperature (approximately 20° C.) as described in Khan, S.; Smith, M. E., Muscle Nerve, 18, 1250-1256; 1995. The central tendon was attached with the aid of a silk thread to a force transducer (Dynamometer, model UF1), and the phrenic nerve was introduced into the end of a suction electrode for indirect stimulation.
(§2) The phrenic nerve was stimulated continuously at a low frequency (0.5 Hz) with supramaximum square wave pulses of 0.2 msec width using a dual channel stimulator (Digitimer D4030). The muscle was allowed to equilibrate until the responses of the stimulated muscle had reached a constant amplitude (approximately 20 min). Krebs solution ([…]), or a solution ([…]) of the appropriate peptide, was added to the centre of the organ bath whilst the contractions were being recorded.
(§3) Direct stimulation of the muscle was effected by two stainless steel needle electrodes placed near the centre of the hemidiaphragm. The position of the force transducer was adjusted until a constant resting tension was seen. When direct stimulation of the muscle was employed d-tubocurarine chloride (2.5×10^−6M) was included in the bathing medium to block the acetylcholine (ACh) receptors and prevent indirect stimulation of the muscles via the motor nerve terminals. The phrenic nerve was stimulated continuously at 0.5 Hz, d-tubocurarine was added to the organ bath, and then, when the responses to nerve stimulation had ceased, the muscle was subjected to continuous direct supramaximum stimulation at a frequency of 0.5 Hz. […] The amplitude, time to peak and half relaxation time of the contractions developed in response to indirect and direct stimulation were determined. The half-relaxation time of the contractions was expressed as the time taken for the tension to decline from the maximum amplitude to half maximum. The dose-response curves were analyzed using a Kaloidograph software package to determine the values for EC50 and maximum response. The significance of the results was determined, unless otherwise stated, using ANOVA, with treatment as the grouping factor, followed by the Bonferroni-Dunn post hoc test.

[2] = test system: CPK leakage into the blood; details: intravenous injection of β-endorphin alone; cited from earlier work
[3] = test system: mouse diaphragm muscle; experiment: Contractions of hemidiaphragm in response to nerve stimulation in the presence of neostigmine sulphate; format: cell-based, mice, C57BL/6j strain; details: neostigmine sulphate 10^−5 M, peptide 10^−7 M; mean ± S.E.M.
Method: as §1
as §2, with “recorded. […]” for “recorded.”

[4] = test system: mouse diaphragm muscle; experiment: Contractions of hemidiaphragm in response to direct stimulation of the muscle in the presence of d-tubocurarine; format: cell-based, mice, C57BL/6j strain; details: peptide 2.5×10^−8 M, mean ± S.E.M.
Method: as §1
as §3, with “terminals.” for “terminals. The phrenic nerve was stimulated continuously at 0.5 Hz, d-tubocurarine was added to the organ bath, and then, when the responses to nerve stimulation had ceased, the muscle was subjected to continuous direct supramaximum stimulation at a frequency of 0.5 Hz.”, “test. […]” for “test.”

[5] = test system: dystrophic mice; experiment: Chronic intravenous injection in dystrophic mice (body weight, EDL muscle weight, CPK in blood and muscle); format: in vivo
Method: In one series of experiments, the C-terminal peptide, glycylglutamine, was injected intravenously into the blood of dystrophic mice 4 to 5 times a week in an amount of approximately 1.5 microgram/g body weight each time over a seven week period. Control mice were injected with the same volume of saline at the same times. There were six mice in each group.
The following measurements were made:
1. Change in body weight (the dystrophic mice would usually not gain significant weight over seven weeks and might even lose weight-depending on their age).
2. Weight of the extensor digitorum longus (EDL) muscle.
3. Level of CPK in the blood (a diagnostic test for muscular dystrophy is to measure the level of CPK in the blood. In muscle diseases, the blood levels of enzymes such as CPK are elevated and in muscular dystrophy the levels can be very high).
4. CPK enzyme levels in the muscle.

[6] = indirect stimulation 0.5 Hz, mean ± SEM

N-Acetyl β-endorphin (Ac-YGGFMTSEKSQTPLVTLFKNAIIKNAYKKGE; UniProt P01189 237-267, looked up)
effect on the amplitude of the contractions (in words) ([1]; indirect stimulation 0.5 Hz): no significant effect
responses in the presence of the peptide ([1]; three preparations, concentration not given, mean ± SEM): 101.5±0.7%

CC(C)[C@H](NC(=O)[C@H](CCC(=O)O)NC(=O)[C@H](Cc1ccccc1)NC(=O)[C@@H](C)NC(=O)[C@@H](N)Cc1ccc(O)cc1)C(=O)N[C@H](C(=O)NCC(N)=O)C(C)C [deltorphin II]
EC50 ([1]; indirect stimulation 0.5 Hz, room temperature, read-out: EC50 for increase in contractile response): 0.2 nM

N[C@@H](CCC(=O)O)C(=O)O [L-glutamic acid]
effect on the amplitude of the contractions (in words) ([1]; indirect stimulation 0.5 Hz): no effect

CC[C@H](C)[C@H](NC(=O)[C@H](C)NC(=O)[C@H](CC(N)=O)NC(=O)[C@H](CCCCN)NC(=O)[C@H](Cc1ccccc1)NC(=O)[C@H](CC(C)C)NC(=O)[C@@H](NC(=O)[C@@H](NC(=O)[C@H](CC(C)C)NC(=O)[C@@H]1CCCN1C(=O)[C@@H](NC(=O)[C@H](CCC(N)=O)NC(=O)[C@H](CO)NC(=O)[C@H](CCCCN)NC(=O)[C@H](CCC(=O)O)NC(=O)[C@H](CO)NC(=O)[C@@H](NC(=O)[C@H](CCSC)NC(=O)[C@H](Cc1ccccc1)NC(=O)CNC(=O)CNC(=O)[C@@H](N)Cc1ccc(O)cc1)[C@@H](C)O)[C@@H](C)O)C(C)C)[C@@H](C)O)C(=O)N[C@H](C(=O)N[C@@H](CCCCN)C(=O)N[C@@H](CC(N)=O)C(=O)N[C@@H](C)C(=O)N[C@@H](Cc1ccc(O)cc1)C(=O)N[C@@H](CCCCN)C(=O)N[C@@H](CCCCN)C(=O)NCC(=O)N[C@@H](CCC(=O)O)C(=O)O)[C@@H](C)CC [β-endorphin]
effect in preventing CPK leakage into the blood [2]: little effect
blockade of the agonist's/peptide's effect on contractile responses by NTB (d2-opioid antagonist) [1]: neither
effect on the amplitude of the contractions (in words) ([1]; indirect stimulation 0.5 Hz): immediate increase
maximum increase in the response [1, 6]: 34.4±2.9%
blockade of the peptide's effect on contractile responses by naloxone [1]: complete blockade
1/2 relaxation time [1]: 99.6 ± 0.3 percentage of the untreated controls
Time to peak [1]: 94.1 ± 0.5 percentage of the untreated controls

Ac-K[dK][Sar]E [β-endorphin28-31 analogue]
tension developed in the presence of neostigmine sulphate [3]: 103.4±1.0%
tension developed, % of the control values (absence of added peptide) [4]: 100±1.1%
blockade of the agonist's/peptide's effect on contractile responses by BNTX (d1-opioid antagonist) [1]: Neither naloxone, BNTX, nor NTB blocked
blockade of the agonist's/peptide's effect on contractile responses by NTB (d2-opioid antagonist) [1]: Neither naloxone, BNTX, nor NTB blocked
duration of the effect on amplitude after addition of the peptide ([1]; indirect stimulation): at least 6 minutes
lowest concentration at which significant increases in contractile responses were seen ([1]; indirect stimulation): 10^−10 M
effect on the amplitude of the contractions (in words) ([1]; indirect stimulation 0.5 Hz): immediate increase
maximum increase in the response [1, 6]: 16.7±0.9%
blockade of the peptide's effect on contractile responses by naloxone [1]: Neither naloxone, BNTX, nor NTB blocked
1/2 relaxation time [1]: 102.8 ± 2.6 percentage of the untreated controls
Time to peak [1]: 95.9 ± 0.3 percentage of the untreated controls

β-Endorphin 1-16 (YGGFMTSEKSQTPLVT; Beta-endorphin; UniProt P01189 237-252, looked up, fragment) [β-endorphin fragment (α-endorphin)]
effect on the amplitude of the contractions (in words) ([1]; indirect stimulation 0.5 Hz): no significant effect
tension developed, % of the control tension ([1]; peptide 10^−6 M, indirect stimulation): 102.0±0.2%

NCC(=O)N[C@@H](CCC(N)=O)C(=O)O [glycylglutamine, glycyl-L-glutamine] (H-Gly-Gln-OH)
tension developed, % of the control values (absence of added peptide) [4]: 98.7±0.9%
increase in body weight ([5]; i.v. approximately 1.5 microgram/g 4 to 5 times a week, seven week period, statistically significant): approximately 12%
reduction of CPK level in the blood ([5]; i.v. approximately 1.5 microgram/g 4 to 5 times a week, seven weeks): 25%
increase in EDL muscle weight ([5]; i.v. approximately 1.5 microgram/g 4 to 5 times a week, seven weeks, not statistically significant): approximately 5%
increase of enzyme (CPK) concentration in the EDL muscle ([5]; seven weeks, calculated on a wet weight basis): 55%
blockade of the agonist's/peptide's effect on contractile responses by BNTX (d1-opioid antagonist) [1]: Neither naloxone, BNTX, nor NTB blocked
blockade of the agonist's/peptide's effect on contractile responses by NTB (d2-opioid antagonist) [1]: Neither naloxone, BNTX, nor NTB blocked
lowest concentration at which significant increases in contractile responses were seen ([1]; indirect stimulation): 10^−10 M
effect on the amplitude of the contractions (in words) ([1]; indirect stimulation 0.5 Hz): immediate increase
maximum increase in the response [1, 6]: 18.5±1.5%
blockade of the peptide's effect on contractile responses by naloxone [1]: Neither naloxone, BNTX, nor NTB blocked

β-endorphin1-27 (YGGFMTSEKSQTPLVTLFKNAIIKNAY; Beta-endorphin; UniProt P01189 237-263, looked up, fragment)
tension developed in the presence of neostigmine sulphate [3]: 102.3±1.2%
tension developed, % of the control values (absence of added peptide) [4]: 99.6±0.5%
blockade of the agonist's/peptide's effect on contractile responses by NTB (d2-opioid antagonist) [1]: neither
effect on the amplitude of the contractions (in words) ([1]; indirect stimulation 0.5 Hz): immediate increase
maximum increase in the response [1, 6]: not maximum even at 10^−6 M
blockade of the peptide's effect on contractile responses by naloxone [1]: had no effect on the amplitude of the contractions
1/2 relaxation time [1]: 99.4 ± 0.4 percentage of the untreated controls
Time to peak [1]: 98.1 ± 0.4 percentage of the untreated controls
